Experimental data published in PubChem BioAssay AID1963856 (Molecular Pharmacology Branch, DTP, NCI, 2024).

System: LG0567-F671-PDC KRAS tumor spheroid viability
Experiment: Anticancer human tumor LG0567-F671-PDC patient-derived lung adenocarcinoma cell line growth inhibition [KRAS2]
Settings: spheroids with HUVEC and MSC; for IC50: curve of first compound; for viability, T/C: stronger effect = lower value
Method in brief: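 Combination screen of spheroid viability in tumor-cell co-cultures with endothelial (HUVEC) and mesenchymal stem cell stroma. Each agent was tested in half-log dilutions, topping at clinical Cmax or at 10 microM without a known Cmax.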

[1] = second compound 0.1 µM, first compound 0.000316 µM
[2] = second compound 0.1 µM, first compound 0.001 µM
[3] = second compound 0.1 µM, first compound 0.00316 µM
[4] = second compound 0.1 µM, first compound 0.01 µM
[5] = second compound 0.1 µM, first compound 0.0316 µM
[6] = second compound 0.316 µM, first compound 0.000316 µM
[7] = second compound 0.316 µM, first compound 0.001 µM
[8] = second compound 0.316 µM, first compound 0.00316 µM
[9] = second compound 0.316 µM, first compound 0.01 µM
[10] = second compound 0.316 µM, first compound 0.0316 µM
[11] = second compound 1 µM, first compound 0.000316 µM
[12] = second compound 1 µM, first compound 0.001 µM
[13] = second compound 1 µM, first compound 0.00316 µM
[14] = second compound 1 µM, first compound 0.01 µM
[15] = second compound 1 µM, first compound 0.0316 µM
[16] = second compound 3.16 µM, first compound 0.000316 µM
[17] = second compound 3.16 µM, first compound 0.001 µM
[18] = second compound 3.16 µM, first compound 0.00316 µM
[19] = second compound 3.16 µM, first compound 0.01 µM
[20] = second compound 3.16 µM, first compound 0.0316 µM
[21] = second compound 10 µM, first compound 0.000316 µM
[22] = second compound 10 µM, first compound 0.001 µM
[23] = second compound 10 µM, first compound 0.00316 µM
[24] = second compound 10 µM, first compound 0.01 µM
[25] = second compound 10 µM, first compound 0.0316 µM
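Further: drug exposure lasted seven days after spheroids formed for three days.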
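Wherever viability, T/C is given: 100% = DMSO vehicle control viability.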

Row | SMILES | IC50 (second compound 0.1 µM) [nM] | IC50 (second compound 0.316 µM) [nM] | IC50 (second compound 1 µM) [nM] | IC50 (second compound 3.16 µM) [nM] | IC50 (second compound 10 µM) [nM] | viability, T/C [1] [%] | viability, T/C [2] [%] | viability, T/C [3] [%] | viability, T/C [4] [%] | viability, T/C [5] [%] | viability, T/C [6] [%] | viability, T/C [7] [%] | viability, T/C [8] [%] | viability, T/C [9] [%] | viability, T/C [10] [%] | viability, T/C [11] [%] | viability, T/C [12] [%] | viability, T/C [13] [%] | viability, T/C [14] [%] | viability, T/C [15] [%] | also measured
1 | CC(=O)Nc1cccc(-n2c(=O)n(C3CC3)c(=O)c3c(Nc4ccc(I)cc4F)n(C)c(=O)c(C)c32)c1 + COc1cc2nc(C)nc(NC(C)c3cc(N)cc(C(F)(F)F)c3)c2cc1OC1CCOC1 | 1 | 0.299 | < 0.1 | < 0.1 | < 0.1 | 52.6 | 53 | 39.9 | 25.9 | 8.34 | 48.7 | 36.3 | 33.2 | 22.7 | 11.8 | 43 | 39.7 | 31.2 | 26.8 | 7.58 | viability, T/C (second compound 0.1 µM, first compound 0.0001 µM): 69.8%; viability, T/C (second compound 0.316 µM, first compound 0.0001 µM): 60.9%; viability, T/C (second compound 1 µM, first compound 0.0001 µM): 45.4%; viability, T/C (second compound 3.16 µM, first compound 0.0001 µM): 48.6%; viability, T/C [16]: 43.7%; viability, T/C [17]: 34%; viability, T/C [18]: 19.2%; viability, T/C [19]: 17.1%; viability, T/C [20]: 6.02%; viability, T/C (second compound 10 µM, first compound 0.0001 µM): 41.3%; viability, T/C [21]: 36.6%; viability, T/C [22]: 27.2%; viability, T/C [23]: 13.4%; viability, T/C [24]: 5.95%; viability, T/C [25]: 1.33%
2 | CN(C)C/C=C/C(=O)Nc1cc2c(Nc3ccc(F)c(Cl)c3)ncnc2cc1O[C@H]1CCOC1 + COc1cc2nc(C)nc(NC(C)c3cc(N)cc(C(F)(F)F)c3)c2cc1OC1CCOC1 | 30 | 4.27 | 11.2 | < 0.316 | < 0.316 | 88.5 | 68.1 | 56.5 | 51.2 | 51.6 | 69.5 | 60.9 | 54.4 | 40.8 | 45.1 | 85.9 | 66.4 | 57.5 | 53.9 | 39.8 | viability, T/C (second compound 0.1 µM, first compound 0.1 µM): 48.2%; viability, T/C (second compound 0.316 µM, first compound 0.1 µM): 46.2%; viability, T/C (second compound 1 µM, first compound 0.1 µM): 49.3%; viability, T/C [16]: 45.9%; viability, T/C [17]: 43.8%; viability, T/C [18]: 36.4%; viability, T/C [19]: 32.1%; viability, T/C [20]: 29.8%; viability, T/C (second compound 3.16 µM, first compound 0.1 µM): 32.1%; viability, T/C [21]: 39.6%; viability, T/C [22]: 35.5%; viability, T/C [23]: 27.8%; viability, T/C [24]: 24.4%; viability, T/C [25]: 17.8%; viability, T/C (second compound 10 µM, first compound 0.1 µM): 22.4%
